“Also recorded” adds a separate entry of the source.
System: MDA-MB-453 breast cancer cell line (HR2+/HER2+, ER-negative)
Assay: Cell proliferation assay, MDA-MB-453 cells
Assay type: cell-based, human
Conditions: MDA-MB-453 (ER-negative control); ICI 182,780 100 nM alone
Procedure: All cell lines were cultured according to ATCC's guidelines. BT20, HCC1187, MDAMB468 and SUM159 cells were trypsinized with 0.05% trypsin/EDTA and plated at appropriate densities (BT20: 6,000, HCC1187: 10,000, MDAMB468: 4,000 and SUM159: 1,000 cells/well) in 96 well plates in DMEM+10% FBS. The next day Calcitriol and Taxol were added at concentrations of 25 nM and 1.5 nM respectively (Day0). For ZR75B, 4000 cells/well were plated in 96 well plates in DMEM+10% FBS. […] Calcitriol and 5 nM IC1180,782 were added the next day with fresh medium (Day0). Media was refreshed every two days and cell proliferation assay was performed on day 6 for above cell lines. The T47D cells were trypsinized with phenol red free Triple Express (Invitrogen) and washed once with PBS and 10,000 cells/well were plated in phenol red free DMEM+5% charcoal stripped FBS (CSFBS) in 96 well plates and cultured for 3 days. On the fourth day, 10 nM 17 beta estradiol (E2) was added into all the wells except non-drug treatment group, in addition to 10 nM IC1180,782, 10 nM R1881 and 50 nM Calcitriol in different groups with fresh phenol red free DMEM+5% CSFBS (Day0). […] All the proliferation assays were carried out using cell titer blue reagent (Promega) and fluorescence was measured using Bio-Tek spectrophotometer at 530/25 nm (excitation) and 590/35 nm (emission). […]

SMILES: C[C@]12CC[C@@H]3c4ccc(O)cc4C[C@@H](CCCCCCCCC[S+]([O-])CCCC(F)(F)C(F)(F)F)[C@H]3[C@@H]1CC[C@@H]2O (stereo partly shown) [ICI 182,780]
- cell proliferation: no inhibition was observed; also recorded: no inhibition of cell proliferation

Reference: patent publication US20160146819A1, “CLASSIFICATION SYSTEM, METHODS AND KIT FOR CLASSIFYING, PREDICTING AND TREATING BREAST CANCER” (UNIVERSITY OF MIAMI, priority 2013, published 2016)
